Reference: patent US7005274B1, “Methods and compositions for diagnosing and treating arthritic disorders and regulating bone mass” (MIGENIX Corp., priority 1999, dated 2006)

Experiments:
Assay type in all cases: cell-based, human
chondrocytes [1] = test: Collagen synthesis, [3H]-proline labeling, collagenase-sensitive protein; details: 72 hours after addition; 0.025 mM antimycin A or non-lethal dose of oligomycin
Experimental: Collagen production was measured by tritiated proline ([^3H]-proline) biosynthetic protein labeling and measuring of collagenase-sensitive protein production (FIG. 2). Articular chondrocytres or TC28 cells (5×10^5 cells) were plated in 5 ml medium made 0.025 mM in antimycin A (or 0.02 μg/ml oligomycin, see next Example) by addition of the indicated agent every 24 hours. After the mitochondrial inhibitors were added, the cells were cultured for a further 48 hours. Medium was then removed and replaced with serum-free medium containing 5 μl/ml of [^3H]-proline, 50 μg/ml ascorbate and 100 μg/ml β-aminoproprionitrile, and incubation continued for an additional 8 hours.
Medium was then collected and precipitated with 15% trichloroacetic acid (TCA). Cells were extracted in 1 M NaCl, 1 mM N-ethylmaleimide, 0.2 mM phenylmethylsulfonyl fluoride, 0.75 mM EDTA and then precipitated with 15% TCA. The precipitates were washed 3 times with 5% TCA and once with 5% TCA containing 0.5% tannic acid. The pellet was dissolved and resuspended in 0.05 M Tris-HCl, pH 7.6, 5 mM CaCl2, 2.5 mM N-ethylmaleimide. Collagenase-sensitive protein per μg total protein was determined by incubation for 2 hours with 80 units/ml of collagenase, followed by addition of 10% TCA/0.5% tannic acid, and addition of the supernatant to scintillation fluid for standard scintillation counting in the tritium channel.

[2] = test system: articular chondrocytes and TC28 cells; test: Oxygen consumption with a Clark electrode (respiratory rate); details: SIN-1 500 μM; NOC-12 250 μM; antimycin A and oligomycin concentration not stated
chondrocytes [3] = test: Extracellular and intracellular PPi elaboration; details: for ability of TGFβ to increase extracellular and intracellular PPi: TGFβ 10 ng/ml; for basal PPi elaboration: absence of TGFβ
Experimental: One set of experiments described in this Example and presented in FIG. 4 examined the effects of agents that inhibit mitochondrial function on PPi elaboration in the absence of TGFβ. Chondrocytes (primary cultures and immortalized cell line TC-28) were prepared, cultured and treated with oligomycin (FIG. 4A), or with antimycin A (FIG. 4B), as in the preceding Examples. Extracellular PPi was determined radiometrically, and equalized for cellular DNA, according to the method of Terkeltaub et al. (Arthritis Rheum. 41:2152–2164, 1998). To determine intracellular PPi levels, washed cells were heated at 65° C. for 45 minutes, washed again and lysed in lysis buffer (1% Triton X-100, 1.6 mM MgCl2, 0.2 M Tris, pH 8.1), essentially according to the procedures described by Lotz et al. (Proc. Natl. Acad. Sci. U.S.A. 92:10364–10368, 1995).
Another set of experiments examined the ability of inhibitors of mitochondrial function to impact the ability of TGFβ to increase intracellular and extracellular PPi levels. Antimycin A- (FIG. 4B) or oligomycin-treated (FIG. 4A) chondrocytes, as well as control (untreated) cells, prepared as described in the preceding Examples, were incubated with or without TGFβ (10 ng/ml), and levels of extracellular and intracellular PPi levels were determined.

[4] = test system: articular chondrocytes and TC28 cells; test: Intracellular ATP, statements covering both cell preparations; details: for depletion of intracellular ATP levels: 0.025 mM antimycin A or 0.02 μM oligomycin, administered every 24 hours for 72 hours; for intracellular ATP levels (qualitative): SIN-1 500 μM, NOC-12 250 μM, antimycin A and oligomycin concentration not stated; for effect on TGFβ-induced increase of intracellular ATP: antimycin A 0.025 mM or oligomycin 0.02 μM additionally present
Experimental: Levels of total cellular ATP were measured by a modification of luciferase-based assays known in the art (Lin et al., Anal. Biochem. 24:531–540, 1968); related assays and modifications may alternatively be used (see, e.g., Turman et al., In Vitro Cell. Dev. Biol. Anim. 32:1–4, 1996, for an assay format that uses a fluorescent plate reader). In brief, 2×10^6 cells were washed and pelleted in 10 ml phosphate-buffered saline (PBS). The cell pellets were snap-frozen in a dry ice/ethanol bath, after which […] of 0.2 M HCl was added, followed by 0.3 ml of 2 mM glycine (pH 9.0). Samples were heated at 100° C. for five minutes, then placed on ice. A standard curve was developed using 0 to 500 pmol of purified ATP (disodium salt). One hundred (100) μl of the cell extract, or purified ATP standard, was added to an equal volume of the ATP assay mixture (containing MgSO4, DTT, EDTA, luciferase and luciferin, all from the Sigma Bioluminescence Assay Kit and all diluted 1:25). Following a 5 second incubation and 15 second integration, samples were read on a TD-20/20 Luminometer (Turner Designs, Sunnyvale, Calif.).
In FIG. 1A, articular chondrocytes or TC28 cells (5×10^5) in 5 ml were studied in triplicate in the presence of antimycin (or oligomycin, see next Example) at the indicated concentrations, administered every 24 hours for a total of 72 hours, and total intracellular ATP concentrations were determined as described above. Viability determinations are shown in FIG. 1B, where 2×10^4 chondrocytes or TC28 cells in 0.2 ml were cultured in triplicate in the presence of antimycin (or oligomycin) at the indicated concentrations, administered every 24 hours for a total of 72 hours, and cell viability was determined by trypan blue dye exclusion (>200 cells counted for each replicate).

[5] = test system: articular chondrocytes and TC28 cells; test: Level of glycolysis; details: 0.025 mM antimycin A or 0.02 μM oligomycin
chondrocytes [6] = test: Proteoglycan synthesis, [35S] labeling; details: 72 hours after addition; 0.025 mM antimycin A or non-lethal dose of oligomycin
Experimental: Proteoglycan synthesis was measured by [^35S]-labeling and uptake of the isotope, as well as by biosynthetic incorporation of the isotope (van Osch et al., Matrix Biol. 17:413–424, 1998) into proteoglycans extracted and subsequently purified by column chromatography on Sephadex® G-25 (Pharmacia, Piscataway, N.J.) (FIG. 3). Chondrocytes or TC28 cells (3×10^6) were plated in 30 ml of medium in a 10-cm diameter tissue culture dish and the medium was made 0.025 mM in antimycin (or 0.02 μg/ml oligomycin) every 24 hours for 72 hours. After 48 hours of culture, 20 μCi/ml of [^35S]sodium sulfate was added to each plate in serum-free medium. After a total of 72 hours, the medium was collected and the cells were washed once with phosphate buffered saline (PBS) and then scraped into 0.5 M NaOH and mixed for 48 hours at 4° C. The medium and the cell extract were eluted from Sephadex® (Pharmacia, Piscataway, N.J.) G-25M PD-10 columns with 4M guanidine-HCl. The eluted portion was added to scintillation fluid and counted (n=9 replicates in FIG. 3; *=P<0.05 by Student's t-test).

`CC[C@H]1/C=C/C=C/C[C@@H](C)[C@H](O)[C@@](C)(O)C(=O)[C@@H](C)[C@H](O)[C@@H](C)C(=O)[C@@H](C)[C@H](O)[C@@H](C)/C=C/C(=O)O[C@@H]2[C@H](C)[C@H](CC1)O[C@]1(CC[C@H](C)[C@H](C[C@@H](C)O)O1)[C@H]2C` [oligomycin] was tested. Which “depression of collagen synthesis” value (chondrocytes [1]) did it give?
Its value is “more than 50%”.

What about the respiratory rates [2] of the same compound?
Its respiratory rates is “inhibited respiratory rates”.

And the “ability of TGFβ to increase extracellular and intracellular PPi” value (chondrocytes [3])?
Its value is “abrogated the ability of TGFβ to increase extracellular and intracellular PPi”.

What about the “basal PPi elaboration” value (chondrocytes [3]) of the same compound?
Its value is “attenuated basal PPi elaboration”.

And the “depletion of intracellular ATP levels” value [4]?
Its value is 50–80%.

What about the “intracellular ATP levels (qualitative)” value [4] of the same compound?
Its value is “depressed intracellular ATP levels”.

And the “effect on TGFβ-induced increase of intracellular ATP” value [4]?
Its value is “this effect was blocked”.

What about the “effect on level of glycolysis” value [5] of the same compound?
Its value is “without altering the constitutively high level of glycolysis”.

What about the “depression of proteoglycan synthesis” value (chondrocytes [6]) of the same compound?
The value was “more than 50%”.

With antimycin A as the compound, how does the “depression of collagen synthesis” value (chondrocytes [1]) read?
The value was “more than 50%”.

What about the respiratory rates [2] of the same compound?
Its respiratory rates is “inhibited respiratory rates”.

And the “ability of TGFβ to increase extracellular and intracellular PPi” value (chondrocytes [3])?
The value was “abrogated the ability of TGFβ to increase extracellular and intracellular PPi”.

What about the “basal PPi elaboration” value (chondrocytes [3]) of the same compound?
The value was “attenuated basal PPi elaboration”.

And the “depletion of intracellular ATP levels” value [4]?
Its value is 50–80%.

And the “intracellular ATP levels (qualitative)” value [4]?
The value was “depressed intracellular ATP levels”.

What about the “effect on TGFβ-induced increase of intracellular ATP” value [4] of the same compound?
The value was “this effect was blocked”.

And the “effect on level of glycolysis” value [5]?
Its value is “without altering the constitutively high level of glycolysis”.

What about the “depression of proteoglycan synthesis” value (chondrocytes [6]) of the same compound?
The value was “more than 50%”.
